Columns and labels:
Type in all cases: in vivo, C57BL/6 mice
[1] = system: UUO kidney; assay: Renal histopathology evaluation by H&E staining in UUO model; details: 30 mg/kg daily i.p.
Method: (§1) Male 8-week-old C57BL/6 mice were purchased form National Laboratory Animal Breeding and Research Center (Taipei, Taiwan) and maintained at the animal center of the National Defense Medical Center (Taipei, Taiwan). All animal experiments were performed with the approval of the Institutional Animal Care and Use Committee of The National Defense Medical Center, Taiwan, and were consistent with the National Institutes of Health Guide for the Care and Use of Laboratory Animals.
(§2) Mice were first anesthetized with sodium pentobarbital (50 mg/kg, i.p.). After a left flank incision was taken, the left ureter was exposed, ligated with 6-0 silk sutures at two points, and cut between the two ligatures. Lastly, the peritoneal membrane and skin were sutured. Sham surgery was performed as control by following all steps of UUO-procedure except ligation and cut of ureter. (Xiao et al. Adenosine A2A receptor: a target for regulating renal interstitial fibrosis in obstructive nephropathy, PLoS One. 2013 Apr. 9; 8 (4):e60173).
Briefly, all mice received preoperative analgesia (subcutaneous injection of […] buprenorphin (Temgesic, Shering-Plough)) and the right ureter was subsequently ligated with 6.0 silk through a small abdominal incision under 2.0% isoflurane-induced anesthesia. The abdomen was closed in two layers and mice were allowed to recover from surgery for 12 hours at 28° C. in a ventilated stove. Mice were sacrificed 7 or 14 days after surgery (Pulskens, et al. Nlrp3 prevents early renal interstitial edema and vascular permeability in unilateral ureteral obstruction, PLoS One. 2014 Jan. 15; 9 (1):e85775).
Ginsenoside M1, 20-O-β-D-glucopyranosyl-20(S)-protopanaxadiol (named LCHK168 below), was prepared by methods known in the art, such as those described in Taiwan Patent Application No. 094116005 (I280982) and U.S. Pat. No. 7,932,057. LCHK168 was dissolved in 3% cremophore (Sigma-Aldrich). Starting from one day before UUO operation, mice were given a daily dose of LCHK168 (30 mg/kg) by intraperitoneal injection till sacrifice.
Paraffin-embedded kidney tissues were sectioned and stained with Masson's trichrome and hematoxylin and eosin (H&E) using standard protocols. For histopathology, the tissues were fixed in 10% buffered formalin and embedded in paraffin, and then sections (3 μm) were prepared and stained with hematoxylin and eosin (H&E).
Sections all are examed after mounting. The methods of semi-quantitative analysis are according to the degree of inflammation and fibrosis on renal tubulointerstitial whereas and randomly selected 20 fields randomly for scoring. […]

[2] = system: apoptotic cells in UUO renal interstitial area; assay: TUNEL staining of renal section for apoptotic cells in UUO model; details: UUO mice; 30 mg/kg daily i.p.
Method: as §1, §2
(§3) Briefly, all mice received preoperative analgesia (subcutaneous injection of […] buprenorphin (Temgesic, Shering-Plough)) and the right ureter was subsequently ligated with 6.0 silk through a small abdominal incision under 2.0% isoflurane-induced anesthesia. […]

[3] = system: proliferating cell nuclear antigen (PCNA); assay: Immunohistochemical staining of renal section for PCNA in UUO model; details: UUO mice; 30 mg/kg daily i.p.
Method: as §1, §2, §3

[4] = system: fibrosis tissue in the UUO interstitial area; assay: Masson's trichrome staining of renal section in UUO model; details: UUO mice; 30 mg/kg daily i.p.
Method: as §1, §2, §3

[5] = system: α-SMA; assay: Immunohistochemical staining of renal section for α-SMA in UUO model; details: UUO mice; 30 mg/kg daily i.p.
Method: as §1, §2, §3

[6] = system: collagen III; assay: Immunohistochemical staining of renal section for collagen III in UUO model; details: UUO mice; 30 mg/kg daily i.p.
Method: as §1, §2, §3

[7] = system: collagen IV; assay: Immunohistochemical staining of renal section for collagen IV in UUO model; details: UUO mice; 30 mg/kg daily i.p.
Method: as §1, §2, §3

[8] = system: NF-κB; assay: Immunohistochemical staining of renal section for NF-κB in UUO model; details: UUO mice; 30 mg/kg daily i.p.
Method: as §1, §2, §3

[9] = system: F4/80+ monocytes/macrophages; assay: Immunohistochemical staining of renal section for F4/80 (macrophage infiltration) in UUO model; details: UUO mice; 30 mg/kg daily i.p.
Method: as §1, §2, §3

[10] = system: CD3+ T cells; assay: Immunohistochemical staining of renal section for CD3+ (T cell infiltration) in UUO model; details: UUO mice; 30 mg/kg daily i.p.
Method: as §1, §2, §3

[11] = system: MCP-1; assay: ELISA of MCP-1 in pelvis urine in UUO model
Method: as §1
as §2, with “(4):e60173). […]” for “(4):e60173).”
(§4) Urine samples are collected from calyx and pelvis by 29G insulin syringe. […] MCP-1, TNF-α, and IL-1β are then detected by ELISA following instruction manual (eBioscience and R&D). […]

[12] = system: TNF-α; assay: ELISA of TNF-α in pelvis urine in UUO model
Method: as §1
as §2, with “(4):e60173). […]” for “(4):e60173).”
as §4

[13] = system: IL-1β; assay: ELISA of IL-1β in pelvis urine in UUO model
Method: as §1
as §2, with “(4):e60173). […]” for “(4):e60173).”
as §4

[14] = system: splenocytes; assay: B cells and T cells activation in splenocytes by flow cytometry in UUO model; details: within three groups (sham, disease control, LCHK168)
Method: as §1, §2, §3

[15] = system: bone marrow cells; assay: Stem cells and hematopoietic stem cell activation in bone marrow cells by flow cytometry in UUO model; details: within three groups (sham, disease control, LCHK168)
Method: as §1, §2, §3

[16] = 7 days of UUO, vs disease control mice
[17] = day 7, compare to normal control group

CC(C)=CCC[C@](C)(O[C@@H]1O[C@H](CO)[C@@H](O)[C@H](O)[C@H]1O)[C@H]1CC[C@]2(C)[C@@H]1[C@H](O)C[C@@H]1[C@@]3(C)CC[C@H](O)C(C)(C)[C@@H]3CC[C@]12C [LCHK168, 20-O-β-D-glucopyranosyl-20(S)-protopanaxadiol]
mononuclear leukocyte infiltration in the interstitial area (H&E) [1, 16]: inhibited
tubular dilation in the interstitial area (H&E) [1, 16]: inhibited
fibrosis (H&E) ([1]; 14 days of UUO): significantly inhibited
tubular atrophy (H&E) ([1]; 14 days of UUO): significantly inhibited
apoptotic cells (TUNNEL staining) in UUO renal interstitial area [2]: decrease
PCNA expression in renal section [3]: decrease
fibrosis tissue in the UUO interstitial area (Masson's trichrom staining) [4]: decreased
α-SMA expression in UUO interstitial area [5]: decreased
collagen III expression in UUO interstitial area [6]: decreased
collagen IV expression in UUO interstitial area [7]: decreased
NF-κB expression in renal section [8]: inhibited
expression of F4/80 (macrophage) in renal section [9]: decreased
expression of CD3+ (T cells) in renal section [10]: decreased
MCP-1 in renal pelvis urine [11, 17]: higher
MCP-1 in renal pelvis urine ([11]; day 14, compare to UUO group): significant decreased
TNF-α in renal pelvis urine [12, 17]: higher
TNF-α in renal pelvis urine ([12]; day 14, compare to UUO group): significant decreased
IL-1β in renal pelvis urine [13, 17]: higher
IL-1β in renal pelvis urine ([13]; day 14, compare to UUO group): significant decreased
percentage of CD3+CD69+ cells in splenocytes [14]: no significant change
percentage of CD19+CD69+ cells in splenocytes [14]: no significant change
percentage of CD34+ (stem cell) cells in bone marrow cells [15]: no significant change
percentage of Stem-cell antigen-1-positive cells (hematopoietic stem cell) in bone marrow cells [15]: no significant change

From patent publication US10357507B2, “Use of ginsenoside M1 for inhibiting renal fibrosis” (priority 2014, dated 2019)
